In patent US11077114B2, “Stabilized formulations of CNS compounds” (Supernus Pharmaceuticals, Inc., priority 2010, dated 2021):
Where a name gives a salt, the structure may show the parent alone.

Assays:
[1] = cited from earlier work
[2] = Molindone hydrochloride solubility profile at ambient conditions; format: physicochemical; details: acidic to slightly acidic media versus neutral to slightly alkaline pH; FIG. 1
Text: As a weakly basic drug, molindone is typically included into formulations in the form of a salt, such as chloride, sulfate, phosphate, monohydrogenphosphate, dihydrogenphosphate, bromide, iodide, acetate, propionate, decanoate, caprylate, formate, oxalate, malonate, succinate, fumarate, maleate, citrate, lactate, tartrate, methanesulfonate, mandelate, and the like.

[3] = pH dependent solution state stability in phosphate buffer at 37° C.; format: physicochemical; details: 24 hour exposure

Row | SMILES | tmax ([1]; following oral administration) | plasma elimination half-life ([1]; oral dose) | solubility versus pH (in words) [2] | loss ([3]; pH 6.0 phosphate buffer) | loss ([3]; pH 6.8 phosphate buffer) | loss ([3]; pH 7.5 phosphate buffer)
1 | CCc1c(C)[nH]c2c1C(=O)C(CN1CCOCC1)CC2 (stereo not drawn) [Molindone hydrochloride] | 1 to 1.5 h | about 2 hours |  |  |  | 
2 | CCc1c(C)[nH]c2c1C(=O)C(CN1CCOCC1)CC2 (stereo not drawn) [Molindone, 3-Ethyl-6,7-dihydro-2-methyl-5-(morpholinomethyl)indol-4(5H)-one] |  |  | greater solubility | 3% | 6.4% | 7.5%
